Measured values from PMC10931776, “Modes of Interactions with DNA/HSA Biomolecules and Comparative Cytotoxic Studies of Newly Synthesized Mononuclear Zinc(II) and Heteronuclear Platinum(II)/Zinc(II) Complexes toward Colorectal Cancer Cells” (International Journal of Molecular Sciences, 2024).
Like-named read-outs stand apart in the source and are kept apart here.

Legend:
[1] = target: T1, Human serum albumin (HSA) (Homo sapiens, UniProt P02768); experiment: HSA fluorescence quenching; type: binding; settings: for Stern–Volmer constant Ksv, HSA: HSA 2 µM, complex 0–30 µM, PBS pH 7.4, room temperature, λex 295 nm
T1 construct: reagents in general came from Sigma-Aldrich, Acros Organics or Merck
Description: Human serum albumin (HSA) produces a fluorescence signal when excited at 295 nm due to the tryptophan residues. This characteristic makes fluorescence spectroscopy an effective tool for studying complex interactions involving HSA. If the examined complex interacts with HSA, an increasing concentration of the complex will lead to a decrease in fluorescence, as shown in Figure 4 and Figures S14–S17. […] The Stern–Volmer equation (Equation (S2)) was used to determine the Stern–Volmer constant, Ksv, for the HSA interactions.
The binding affinity of the complexes C1–C5 to HSA has been determined through fluorescence quenching experiments. The measurements were conducted in a 0.01 M PBS with a pH of 7.4 at room temperature. The HSA concentration was kept constant at 2 μM while the concentration of complexes C1–C5 was increased from 0 to 30 μM, resulting in a significant decrease in emissions at 352 nm. Before each measurement, the system was shaken at room temperature. The fluorescence intensity was measured with the wavelength of excitation at 295 nm and recorded in the 300 to 500 nm range. The width of the excitation and emission slits (10 nm) and scan rate were maintained at a constant rate. The Stern–Volmer constants, Ksv, were determined by Equation (2).

CT-DNA = experiment: Ethidium bromide/CT-DNA fluorescence quenching (EB displacement); type: binding; settings: EB/CT-DNA 1:1, 5 µM, PBS pH 7.4, room temperature, λex 527 nm, λem 612 nm
Description: Fluorescent spectroscopy allows the determination of the intercalation potential of compounds. Intercalation involves planar aromatic molecules binding between the base pairs of DNA chains, causing them to elongate. Ethidium bromide (EB) is commonly used as a DNA intercalator and produces high levels of fluorescent emissions at 612 nm when intercalating between DNA strands. However, the addition of compounds that can intercalate between DNA strands and suppress the effects of EB will reduce fluorescent emissions. If a complex is able to replace EB, fluorescence reduction will occur, indicating the complex’s ability to bind intercalatively. Figure 3 and Figures S10–S13 show the results of fluorescence titrations in the presence of intercalator EB, where the emission intensity of a constant CT-DNA/EB solution concentration of 5 µM was monitored with increasing complex concentration up to a ratio of 5.
To determine whether the complex could displace EB from the CT-DNA-EB complex, the interactions of the complex with CT-DNA were examined in the presence of EB. The CT-DNA-EB solution was formed by combining EB and CT-DNA solutions with a concentration of 5 μM at a pH of 7.4. The impact of the complex binding to the CT-DNA was measured by analyzing the fluorescence emission spectrum after the addition of the examined complexes solution in increasing concentration, Figure 3.
The binding affinity of the complexes C1–C5 to CT-DNA via intercalation was determined using fluorescence spectroscopy. All measurements were conducted at room temperature in 0.01 M PBS with a pH of 7.4. Fluorescence measurements were performed by adding increasing complex concentrations (0–50 μM) to a CT-DNA and EB solution. Before each measurement, the system was shaken at room temperature. The fluorescence intensity was measured with the wavelength of excitation at 527 nm and the wavelength of emission at 612 nm. The width of the excitation and emission slits (10 nm) and scan rate were maintained at a constant rate. The emission of the solution was recorded in the range of 550 to 750 nm. The Stern–Volmer constants, Ksv, were determined by Equation (2). I0/I = 1 + Ksv[Q](2) [Q] is the concentration of the complex, I0 and I represent emission intensities in the absence and presence of complex, and Ksv is the Stern–Volmer constant obtained from the slope of the plot of I0/I vs. [Q] [25, 26, 27, 28].

[2] = tested on: human colorectal carcinoma (HCT116); experiment: MTT cytotoxicity assay, HCT116; type: cell-based; settings: 48 h; for IC50: read-out: IC50 ± SEM, HCT 116
Method: (§1) The in vitro cytotoxicity of newly synthesized mono- and heteronuclear platinum(II)/and zinc(II) complexes, featuring a 4,4′,4″-tri-tert-butyl-2,2′:6′,2″-terpyridine ligand (designated as C1–C5), was assessed using MTT assay procedures. This evaluation targeted various cell lines: mouse colorectal carcinoma (CT26), human colorectal carcinoma (HCT116 and SW480), and non-cancerous mouse mesenchymal stem cells (mMSC). These cell lines were exposed to synthesized complexes for 48 h, with concentrations ranging from 1.17 to 150 μM.
(§2) In our study, various cell lines were cultured, including mouse colorectal carcinoma (CT26), human colorectal carcinoma (HCT116 and SW480) obtained from ATCC, USA, and mouse mesenchymal stem cells (mMSC, Gibco), New York, NY, USA). These cell lines were consistently maintained in complete Dulbecco’s Modified Eagle Medium (DMEM) supplemented with 10% fetal bovine serum (FBS) (Sigma Aldrich, St. Louis, MO, USA), 100 IU/mL penicillin, and 100 μg/mL streptomycin antibiotics (Invitrogen, Carlsbad, CA, USA). The cultures were incubated at 37 °C in a humidified atmosphere of 5% carbon dioxide (CO2). […] The viability and count of the cells were determined using Trypan blue staining, ensuring the accuracy and reliability of the experimental outcomes.
(§3) The cytotoxic effects of five newly synthesized complexes, alongside cisplatin, were assessed through the MTT assay method, in line with previously established protocols. During the exponential growth phase, cells were collected from culture flasks, counted, and then seeded in 96-well culture plates at a density of 5·10^3 cells per well. Subsequent treatment involved exposing these cells to varying concentrations of the newly synthesized complexes and cisplatin (ranging from 1.17 to 150 μM) for a duration of 48 h, with fresh complete medium serving as the control. The results were quantified relative to the control (untreated cells), providing a comparative measure of cytotoxicity. Additionally, IC50 values, representing the concentration required to inhibit 50% of the cell viability, were calculated using Microsoft Office Excel 2010. Lastly, the data were presented as percentages of viable cells in accordance with the methodology outlined in the referenced study, facilitating a comprehensive understanding of the anticancer potential of these compounds.

[3] = tested on: mouse colorectal carcinoma (CT26); experiment: MTT cytotoxicity assay, CT26; type: cell-based; settings: 48 h; for IC50: read-out: IC50 ± SEM, CT26
Method: as §1, §2, §3

[4] = tested on: human colorectal carcinoma (SW480); experiment: MTT cytotoxicity assay, SW480; type: cell-based; settings: 48 h; for IC50: read-out: IC50 ± SEM, SW480
Method: as §1, §2, §3

[5] = tested on: mouse mesenchymal stem cells (mMSC); experiment: MTT cytotoxicity assay, mMSC; type: cell-based; settings: 48 h, non-cancerous cells, read-out: IC50 ± SEM, mMSCs
Method: as §1
In the context of developing low-toxicity drugs, it is imperative to evaluate the antiproliferative activity against normal cells. The in vitro toxicity of the tested complexes toward normal mouse mesenchymal stem cells (mMSC) was examined. […] These findings indicate the possibility of enhanced in vivo tolerance for this complex.
as §2, §3

[6] = target: T1, Human serum albumin (HSA); design: method as in earlier work; settings: literature value; ref [24]; cited from earlier work
B-DNA (PDB ID: 1BNA) = target: B-DNA (PDB ID: 1BNA); design: method as in PMID 36535193, doi:10.1002/aoc.7413; settings: previously tested complexes; ref [11],[12]; read-out: Ki (inhibition constant), docking with DNA; cited from earlier work

T1 sequence (P02768 25-609): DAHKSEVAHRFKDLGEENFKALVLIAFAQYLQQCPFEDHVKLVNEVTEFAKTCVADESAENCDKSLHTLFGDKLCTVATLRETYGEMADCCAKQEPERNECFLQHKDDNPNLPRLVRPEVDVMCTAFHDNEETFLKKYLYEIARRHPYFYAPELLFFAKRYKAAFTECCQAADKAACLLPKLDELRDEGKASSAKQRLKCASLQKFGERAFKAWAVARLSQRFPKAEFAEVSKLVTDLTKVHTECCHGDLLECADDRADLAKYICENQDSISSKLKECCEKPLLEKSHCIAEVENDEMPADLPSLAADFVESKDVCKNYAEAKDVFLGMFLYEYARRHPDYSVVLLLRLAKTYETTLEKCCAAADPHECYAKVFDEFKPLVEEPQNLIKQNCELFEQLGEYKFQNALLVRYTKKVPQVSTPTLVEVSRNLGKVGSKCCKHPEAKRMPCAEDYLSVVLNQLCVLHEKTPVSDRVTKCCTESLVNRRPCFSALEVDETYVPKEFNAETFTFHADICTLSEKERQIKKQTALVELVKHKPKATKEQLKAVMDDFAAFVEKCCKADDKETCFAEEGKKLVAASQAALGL

| Compound | Stern–Volmer constant Ksv, HSA [1] | Stern–Volmer constant Ksv, CT-DNA (CT-DNA) | Selectivity Index (IC50 mMSC/IC50), HCT 116 [2] | IC50 [2] | Selectivity Index (IC50 mMSC/IC50), CT26 [3] | IC50 [3] | Selectivity Index (IC50 mMSC/IC50), SW480 [4] | IC50 [4] | IC50 [5] | Ki (B-DNA (PDB ID: 1BNA)) | further results |
| --- | --- | --- | --- | --- | --- | --- | --- | --- | --- | --- | --- |
| CC(C)(C)c1ccnc(-c2cc(C(C)(C)C)cc(-c3cc(C(C)(C)C)ccn3)n2)c1.N.N.[Cl-].[Cl-].[O-][Cl+3]([O-])([O-])[O-].[O-][Cl+3]([O-])([O-])[O-].[Pt+2].[Zn+2].c1cnccn1 [C2, [{cis-PtCl(NH3)2(μ-pyrazine)ZnCl(terpy^t^Bu)}](ClO4)2] | 5.8 ± 0.1 10^4 M^–1 | 2.9 ± 0.1 10^4 M^–1 | 0.4 | 26.6 ± 25.9 µM | 0.3 | 35.1 ± 39.6 µM | 0.4 | 25.7 ± 2.93 µM | 10.1 ± 0.98 µM |  |  |
| N.N.[Cl][Pt][Cl] [cisplatin, reference compound] |  |  | 0.5 | 14.7 ± 2.21 µM | 0.8 | 9.03 ± 3.55 µM | 0.7 | 10.1 ± 3.98 µM | 7.32 ± 2.51 µM |  | Stern–Volmer constant Ksv, HSA [6]: 0.24 ** 10^4 M^–1 |
| [{cis-PtCl(NH3)2(μ-4,4′-bipyridyl)ZnCl(terpy)}](ClO4)2 [C3b] |  |  |  |  |  |  |  |  |  | 1.01 µM |  |
| [{cis-PtCl(NH3)2(μ-4,4′-bipyridyl)ZnCl(terpy-Cl)}](ClO4)2 [C3a] |  |  |  |  |  |  |  |  |  | 52.1 µM |  |
| [{cis-PtCl(NH3)2(μ-4,4′-bipyridyl)ZnCl(terpy^t^Bu)}](CIO4)2 [C4] | 22.7 ± 0.1 10^4 M^–1 | 5.2 ± 0.1 10^4 M^–1 | 0.7 | 89.4 ± 6.7 µM | 0.3 | 183 ± 72.4 µM | 0.6 | 94.1 ± 9.89 µM | 60.3 ± 24.7 µM |  | Ksv value for HSA, order of magnitude ([1]; fluorescence quenching of HSA): ~10^5 M^−1 |
| [{cis-PtCl(NH3)2(μ-pyrazine)ZnCl(terpy)}](ClO4)2 [C1b] |  |  |  |  |  |  |  |  |  | 18.1 µM |  |
| [{cis-PtCl(NH3)2(μ-pyrazine)ZnCl(terpy-Cl)}](ClO4)2 [C1a] |  |  |  |  |  |  |  |  |  | 248 µM |  |
| [{trans-PtCl(NH3)2(μ-4,4′-bipyridyl)ZnCl(terpy)}](ClO4)2 [C4b] |  |  |  |  |  |  |  |  |  | 1.22 µM |  |
| [{trans-PtCl(NH3)2(μ-4,4′-bipyridyl)ZnCl(terpy-Cl)}](ClO4)2 [C4a] |  |  |  |  |  |  |  |  |  | 117 µM |  |
| [{trans-PtCl(NH3)2(μ-4,4′-bipyridyl)ZnCl(terpy^t^Bu)}](CIO4)2 [C5] | 9.5 ± 0.1 10^4 M^–1 | 2.9 ± 0.1 10^4 M^–1 | 0.3 | 152 ± 26.8 µM | 0.4 | 108 ± 79.9 µM | 0.5 | 75.4 ± 21.2 µM | 40.2 ± 3.96 µM |  |  |
| [{trans-PtCl(NH3)2(μ-pyrazine)ZnCl(terpy)}](ClO4)2 [C2b] |  |  |  |  |  |  |  |  |  | 16.3 µM |  |
| [{trans-PtCl(NH3)2(μ-pyrazine)ZnCl(terpy-Cl)}](ClO4)2 [C2a] |  |  |  |  |  |  |  |  |  | 231 µM |  |
| [{trans-PtCl(NH3)2(μ-pyrazine)ZnCl(terpy^t^Bu)}](ClO4)2 [C3] | 4.5 ± 0.1 10^4 M^–1 | 2.1 ± 0.1 10^4 M^–1 | 0.4 | 181 ± 105 µM | 0.4 | 210 ± 87 µM | 1.1 | 68.1 ± 5.21 µM | 76.2 ± 12 µM |  |  |
